In patent publication US7534782B2, “Crystal of 1-methylcarbapenem solvate” (Sankyo Company, Limited, priority 2003, dated 2009):
Where two headings read alike, the source gives them in different places.

Tests used:
[1] = storage stability of the crystalline forms; format: physicochemical
[2] = tested on: Gram-negative bacterial strains and Gram-positive bacterial strains; conditions: cited from earlier work

C[C@@H](O)[C@H]1C(=O)N2C(C(=O)O)=C(S[C@H]3C[C@@H](C(=O)N4CC[C@H](NC(=O)CNC(=N)N)C4)N(C)C3)[C@H](C)[C@H]12 [Crystalline form (I-1), (1R,5S,6S)-2-[(2S,4S)-2-[(3S)-3-(2-Guanidinoacetylamino)pyrrolidin-1-ylcarbonyl]-1-methylpyrrolidin-4-ylthio]-6-[(1R)-1-hydroxyethyl]-1-methyl-1-carbapen-2-em-3-carboxylic acid ethanolate]
storage stability under dry conditions ([1]; dry conditions): improved storage stability

C[C@@H](O)[C@H]1C(=O)N2C(C(=O)O)=C(S[C@H]3C[C@@H](C(=O)N4CC[C@H](NC(=O)CNC(=N)N)C4)N(C)C3)[C@H](C)[C@H]12 [Crystalline form (I-2), (1R,5S,6S)-2-[(2S,4S)-2-[(3S)-3-(2-Guanidinoacetylamino)pyrrolidin-1-ylcarbonyl]-1-methylpyrrolidin-4-ylthio]-6-[(1R)-1-hydroxyethyl]-1-methyl-1-carbapen-2-em-3-carboxylic acid tetrahydrate]
stability during storage under conditions of normal or high humidity [1]: stable during storage

C[C@@H](O)[C@H]1C(=O)N2C(C(=O)O)=C(S[C@H]3C[C@@H](C(=O)N4CC[C@H](NC(=O)CNC(=N)N)C4)N(C)C3)[C@H](C)[C@H]12 [Crystalline form (I-3), (1R,5S,6S)-2-[(2S,4S)-2-[(3S)-3-(2-Guanidinoacetylamino)pyrrolidin-1-ylcarbonyl]-1-methylpyrrolidin-4-ylthio]-6-[(1R)-1-hydroxyethyl]-1-methyl-1-carbapen-2-em-3-carboxylic acid ethanolate trihydrate]
stability during storage under conditions of normal or high humidity ([1]; trihydrate): remains stable during storage

C[C@@H](O)[C@H]1C(=O)N2C(C(=O)O)=C(S[C@H]3C[C@@H](C(=O)N4CC[C@H](NC(=O)CNC(=N)N)C4)N(C)C3)[C@H](C)[C@H]12 [compound (I), (1R,5S,6S)-2-[(2S,4S)-2-[(3S)-3-(2-guanidinoacetylamino)pyrrolidin-1-ylcarbonyl]-1-methylpyrrolidin-4-ylthio]-6-[(1R)-1-hydroxyethyl]-1-methyl-1-carbapen-2-em-3-carboxylic acid]
antibiotic activity [2]: excellent antibiotic activity | antibiotic activity ([2]; listed as 1-methylcarbapenem compound of formula (I)): potent antibiotic activity
